Assay results taken from ChEMBL document CHEMBL5335856, “Structurally Diverse Alkaloids with Anti-Renal-Fibrosis Activity from the Centipede Scolopendra subspinipes mutilans” (J Nat Prod, 2024).
Active and inactive are the calls of the source.

Experiments:
Assay type in all cases: functional, cell-based
[1] = test system: RAW264.7; experiment: Antiinflammatory activity against LPS-induced mouse RAW264.7 cells assessed as reduction in COX-2 protein level at 20 uM
[2] = test system: RAW264.7; experiment: Antiinflammatory activity against LPS-induced mouse RAW264.7 cells assessed as reduction in iNOS protein level at 20 uM
[3] = test system: NRK-52E; experiment: Anti-renal-fibrosis activity in TGF-beta1 induced rat NRK-52E cells assessed as downregulation of collagen I protein level at 20 uM by Western blot analysis
[4] = test system: NRK-52E; experiment: Anti-renal-fibrosis activity in TGF-beta1 induced rat NRK-52E cells assessed as downregulation of alpha-SMA protein level at 20 uM by Western blot analysis
[5] = test system: NRK-52E; experiment: Anti-renal-fibrosis activity in TGF-beta1 induced rat NRK-52E cells assessed as downregulation of fibronectin protein level at 20 uM by Western blot analysis

Measured: Activity

Oc1cnc2c(O)cccc2c1
active: [1] | [2]

N=C(N)N1CCC[C@H]1c1ccc2cc(O)cnc2c1O
active: [1] | [2]

COc1cc(=O)n(C)c2c(O)cccc12
active: [1] | [3] | [2] | [4] | [5]

COc1c(O)cnc2c(O)cccc12
active: [1] | [2]

COc1cc(=O)[nH]c2c(OC)cccc12
active: [1] | [3] | [2] | [4] | [5]

COc1c(O)c(=O)n(C)c2c(O)cccc12
active: [1] | [3] | [2] | [4] | [5]
